# Measurements published in EP0782987A1, “INDOLE DERIVATIVES” (KYOWA HAKKO KOGYO CO., LTD., priority 1995, dated 1997).
# What was measured:
# [1] = tested on: calvaria (PTH enhanced bone); experiment: Inhibitory effect on bone absorption (calcium liberation from PTH enhanced cultured calvaria); assay type: cell-based, newborn dd mouse; conditions: mouse calvaria culture, PTH 1 x 10^-8M, 96 hours, calcium in the culture; test compound 3 x 10^-6M, 1 x 10^-5M, 3 x 10^-5M
# Experimental: Test Example 1: Inhibitory effect on bone absorption
# The calvaria was excised from a newborn dd mouse (5 to 6 days old) under sterile conditions. The calvaria was washed with a modified Dulbecco phosphate buffer physiological saline solution containing neither calcium nor magnesium (a product of Gibco Oriental), and divided into two parts along the center suture. A half of the calvaria was cultivated in a modified Dulbecco Eagle medium (1.5 ml) (a product of Gibco Oriental) containing 2.5% fetal calf serum and 15% equine serum which had been inactivated by heating at 56°C for 20 minutes. The test compound was dissolved in dimethyl sulfoxide and 10 µl of the resulting solution was added to the culture medium to give the final concentrations of 3 x 10^-6M, 1 x 10^-5M, and 3 x 10^-5M. PTH (parathyroid hormone) was dissolved in a 0.15 M saline solution (pH 3) and 3 µl of the resulting solution was added to the culture medium to give the final concentration of 1 x 10^-8M. The culturing was carried out under the condition of 95% air and 5% carbon dioxide and at a temperature of 37°C for 96 hours. At 48 hours after the start of the culturing, the culture medium was renewed and the test compound and PTH treated as defined above were added thereto. For examining the effect of the test compound on calcium liberation (bone absorption) from the PTH enhanced bone, a control group, a group using PTH (1 x 10^-8M), and a group using both the test compound (3 x 10^-6M, 1 x 10^-5M, 3 x 10^-5M) and PTH were prepared. The amount of the bone absorption was determined by measuring the amount of calcium accumulated in the culture as collected after 96 hours of culturing. The total calcium concentration in the culture was measured with Calcium C Test Wako. The inhibition rate was calculated using the following equation and the result was shown in terms of 50% inhibitory concentration (IC50). Inhibition of bone absorption from PTH enhanced bone Inhibition rate (%) = [(CP - CD )/(CP - C0 )] x 100 [formula] • C0 : The total calcium concentration in the culture containing neither the test compound nor PTH. • CP : The total calcium concentration in the culture treated with only PTH. • CD : The total calcium concentration in the culture treated with both the test compound and PTH.
# ovariectomized rats = experiment: Inhibitory effect on the increase of urinary hydroxyproline excretion by ovariectomy; assay type: in vivo, female SD strain rats; conditions: 10 mg/kg orally once a day for two weeks, hydroxyproline/creatinine molar ratio in 24 hour urine
# Experimental: The inhibitory effect of the compounds of the present application on bone resorption was also determined by their inhibitory effect on the excretion of urinary hydroxyproline which is elevated by ovariectomy of the animals tested, according to the report of Kalu et al. [Bone and Mineral., 14, 175 (1991)].
# Test Example 2: Inhibitory effect on the increase of urinary hydroxyproline excretion by ovariectomy
# 12-weeks-old female SD strain rats (Japan Clea Co., Ltd.) were acclimated for 1 week during which they were given tap water and a standard diet (F2; Funabashi Farmas) ad libitum. The experiment was carried out using the rats weighing 270-310 g. After the animals were subjected to sham operation or bilateral ovariectomy, they were allowed free access to water passed through ion exchange resin instead of tap water, and were housed in individual cages. The test compound (10 mg/kg) was suspended in 0.3% Tween, and the obtained suspension was orally administered to the ovariectomized rats once a day for two weeks starting from the day following ovariectomy (0.5 ml/100 g body weight). 0.3% Tween was similarly administered to sham-operated rats and ovariectomized control rats. After the final administration, the rats were placed in individual metabolic cages and fasted during 24 hours, and urine was collected. The volume of the collected urine was measured and the urine was centrifuged at 3,000 rpm for 15 min at 4°C. The concentration of hydroxyproline in the supernatant was measured by the method of Ikeda et al. [Ann. Rep. Tokyo Metr. Res. Lab. P. H., 36, 277-282 (1985)] and the concentration of creatinine in the supernatant was measured with creatinine test WAKO (Wako Pure Chem.) The amount of urinary hydroxyproline excretion was expressed by the molar ratio of the amount of hydroxyproline to the amount of creatinine. The rate of inhibition on increase of the amount of urinary hydroxyproline excretion in ovariectomized rats treated with the test compound compared to that of the control group was calculated using the following equation. […]
IC50 [1],SMILES,Inhibition rate of increase of the amount of urinary hydroxyproline excretion (ovariectomized rats)
13.7 µM,"CN(C)CCn1c(S(=O)(=O)N2CCCCC2)c(C(c2ccc(O)cc2)c2ccc(O)cc2)c2ccccc21 [Compound 17, 3-[Bis(4-hydroxyphenyl)methyl]-1-(2-dimethylaminoethyl)-2-(piperidinosulfonyl)indole]",–
13.3 µM,"CCN(CC)S(=O)(=O)c1c(C(c2ccc(O)cc2)c2ccc(O)cc2)c2ccccc2n1CCN(C)C [Compound 18, N,N-Diethyl-3-[bis(4-hydroxyphenyl)methyl]-1-(2-dimethylaminoethyl)indole-2-sulfonamide]",22%
13.7 µM,"CN(C)CCn1c(S(=O)(=O)N2CCCCC2)c(C(c2ccccc2)c2ccccc2)c2ccccc21 [Compound 24, 1-(2-Dimethylaminoethyl)-3-(diphenylmethyl)-2-(piperidinosulfonyl)indole]",100%

# Further lines, the molecule ahead of its results:
SMILES,IC50 [1],Inhibition rate of increase of the amount of urinary hydroxyproline excretion (ovariectomized rats)
"O=S(=O)(c1[nH]c2ccccc2c1C(c1ccc(O)cc1)c1ccc(O)cc1)N1CCN(c2ccccc2Cl)CC1 [Compound 14, 3-[Bis(4-hydroxyphenyl)methyl]-2-[4-(2-chlorophenyl)piperazinylsulfonyl]indole]",14.1 µM,–
"O=S(=O)(c1c(C(c2ccc(O)cc2)c2ccc(O)cc2)c2ccccc2n1CCN1CCOCC1)N1CCN(c2ccccc2Cl)CC1 [Compound 16, 3-[Bis(4-hydroxyphenyl)methyl]-2-[4-(2-chlorophenyl)piperazinylsulfonyl]-1-(2-morpholinoethyl)indole]",–,32%
